# Experimental data published in patent publication US20250230149A1, “MGLUR5 MODULATING COMPOUNDS, COMPOSITIONS, AND METHODS OF USE” (Allyx Therapeutics, Inc., priority 2022, published 2025).
# Entries after “also recorded” stand apart in the source; their conditions may differ.
# Legend:
# [1] = Intravenous and oral cross-over pharmacokinetic study; type: in vivo, male Sprague Dawley rats; conditions: male rats, IV 1 mg/kg
# Experimental: This study assessed the PK of Compound 1 AH Form A in male Sprague Dawley rats (3/group) following single IV (intravenous) administration at 1 mg/kg as a solution in 2.5% N-Methyl-2-pyrrolidone (NMP)+1% Solutol HS15 in water or a PO (oral) administration of 3 formulations at 5 and 50 mg/kg, administered to the same animals in a cross over with 7 days recovery.
# Serial plasma samples were collected at intervals to 24 h post dose and the level of Compound 1 determined in each plasma sample by LC-MS/MS.
# CYP2B6 = target: T1, CYP2B6 (Homo sapiens, UniProt P20813); experiment: CYP450 reaction phenotyping in Supersomes, CYP2B6; type: in vitro ADME
# T1 construct: purchased
# Experimental: (§1) In Vitro CYP450 Reaction Phenotyping Study in Supersomes™ Over-Expressing Human CYP Enzymes
# (§2) The CYPP450 enzymes involved in the Phase I metabolism of Compound 1 Form A were investigated in vitro. Compound 1 Form A was metabolized by CYP1A2, CYP2D6 and CYP3A4 and with T1/2 values of 64, 14, and 176 min, respectively, and CLint of 0.261, 0.984 and 0.0786 μL/min/pmol CYP, respectively. No evidence of Compound 1 metabolism by CYP2B6, CYP2C8, CYP2C9 and CYP2C19 was observed.
# CYP2C8 = target: T2, CYP2C8 (Homo sapiens, UniProt P10632); experiment: CYP450 reaction phenotyping in Supersomes, CYP2C8; type: in vitro ADME
# T2 construct: purchased
# Experimental: as §1, §2
# APP/PS1 mice = experiment: SV2A PET imaging of synaptic density in APP/PS1 mouse model; type: in vivo; conditions: 12 months of age, one-month treatment, 3.75 mg/kg q12 oral
# Experimental: The objective of this study was to assess synaptic density of control and APP/PS1 mice before and after treatment with Compound 1, and to assess the reversibility of any observed effects following a drug washout period.
# Vehicle (95% polyethylene glycol (PEG) 400/5% solutol) or Compound 1 at 7.5 mg/kg/day (3.75 mg/kg q12) was given to control and APP/PS1 mice for at least 28 days by oral administration. A subset of mice stopped treatment after four weeks, then underwent a four-week washout period.
# To further maximize translational relevance, in other studies mice were aged to the point that synapse loss was detectable using SV2A PET. At 12 months of age, synapse density, as measured by hippocampal/brainstem [^18F]SDM-8 SUVR-1, is reduced in APP/PS1 mice relative to wild-type.
# dKI mice [2] = experiment: SV2A PET imaging of synaptic density in APPNLGF/MAPT (dKI) mouse model; type: in vivo; conditions: 12 months of age, one-month treatment, 3.75 mg/kg q12 oral
# Experimental: (§3) The objective of this study was to assess synaptic density of control and Amyloid Precursor Protein carrying NL-G-F mutations/Microtubule-associated protein tau (APP^NLGF/MAPT) (dKI—double knock-in) mice before and after treatment with Compound 1. Vehicle (95% PEG-400/5% Solutol) or Compound 1 at 7.5 mg/kg/day (3.75 mg/kg q12) was given to control and dKI mice for at least 28 days by oral administration.
# To further maximize translational relevance, in other studies mice were aged to the point that synapse loss was detectable using SV2A PET. At 12 months of age, synapse density, as measured by hippocampal/brainstem [^18F]SDM-8 SUVR-1, was reduced in dKI mice relative to wild-type.
# dKI mice [3] = experiment: Immunohistochemical staining of SV2A and PSD-95 in APPNLGF/MAPT (dKI) mouse model; type: in vivo; conditions: 3.75 mg/kg q12 oral, at least 28 days
# Experimental: as §3
# Reduced synaptic density in dKI samples relative to controls was confirmed by immunohistochemical staining of pre- and post-synaptic markers (SV2A and PSD-95) in hippocampal and cortical sections.
# double knock-in mice = experiment: Tau accumulation in double knock-in mice; type: in vivo
# Text: Compound 1 (e.g., Form A) prevented Alzheimer's triggered aberrant synaptic signaling while preserving physiological Glu activation. Studies have been conducted to show oral Compound 1 effectively occupied brain mGluR5 sites visualized by [^18F]FPEB PET at doses 250-fold below adverse effect levels in rodent and non-human primate. […] Production of the microglial mediator, C1q, was not altered by Compound 1, but Alzheimer-gene-dependent C1q localization to synapses and synaptic engulfment were prevented. Thus, selective modulation of mGluR5 reversed neuronal gene expression changes to protect synapses from damage by microglial mediators.
# [4] = Phase I open-label single ascending dose study; type: in vivo, healthy male and female participants; conditions: single oral doses 10-200 mg
# Experimental: This was an open-label, single ascending doses (SAD) study in healthy male and female participants 50 to 80 years of age (inclusive) with no history of cognitive impairment to evaluate the safety of single oral doses of Compound 1.
# Six cohorts of 6 participants each received a single oral dose of Compound 1 in the fasted state at the following dose levels: 10, 40, 70, 100, 150, and 200 mg and then were followed for 7 days; the starting dose of 10 mg was <10% of the 140 mg human equivalent dose (HED) of the rat NOAEL in the GLP 28-day rat study of 15 mg/kg.
# Doses were administered in an inpatient setting where all participants were closely monitored prior to discharge on Day 3, with follow-up in-person visits occurring on Days 4 and 7 and a phone call to inquire about general health occurring on Day 5.
# Compound 1 administration was carefully monitored within and between cohorts to ensure patient safety and determination of whether to open the next dose cohort was made after all participants in a given cohort had completed the study and all available clinical and safety data were reviewed by the Investigator, Medical Monitor, DSMB, and IND Sponsor.
# Following study drug administration, vital signs were monitored every 1 hour for the first 8 hours and then every 3 hours until discharge on Day 3 and an ECG was performed at approximately 6, 24, and 48 hours after drug administration. In order to monitor for changes in consciousness, the Glasgow Coma Scale (GCS) was administered pre-dose and then every 2 hours for the first 8 hours and then every 3 hours until discharge on Day 3. In order to monitor for cognitive or psychiatric side effects, the MOCA, GDS, and NPIQ were administered prior to oral dose administration, again at approximately 6 hours post-dose (approximate peak concentration), and approximately 24 hours post-dose. Adverse events were monitored continuously. Blood was collected for safety laboratory studies prior to drug dose administration and on Days 2 and 3.
# T1 sequence (P20813 whole entry): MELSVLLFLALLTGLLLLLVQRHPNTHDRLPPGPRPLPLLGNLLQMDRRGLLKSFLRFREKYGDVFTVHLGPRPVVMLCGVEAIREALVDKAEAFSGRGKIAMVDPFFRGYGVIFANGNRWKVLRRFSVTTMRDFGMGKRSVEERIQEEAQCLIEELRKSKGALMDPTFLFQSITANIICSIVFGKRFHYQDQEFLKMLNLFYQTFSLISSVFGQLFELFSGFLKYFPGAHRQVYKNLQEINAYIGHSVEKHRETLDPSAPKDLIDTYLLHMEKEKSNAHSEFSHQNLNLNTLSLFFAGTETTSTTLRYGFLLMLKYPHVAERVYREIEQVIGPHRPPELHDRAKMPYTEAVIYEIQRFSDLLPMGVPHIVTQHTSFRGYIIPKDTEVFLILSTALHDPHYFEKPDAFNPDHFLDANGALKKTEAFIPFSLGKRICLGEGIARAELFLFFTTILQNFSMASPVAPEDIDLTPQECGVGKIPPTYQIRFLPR
# T2 sequence (P10632 whole entry): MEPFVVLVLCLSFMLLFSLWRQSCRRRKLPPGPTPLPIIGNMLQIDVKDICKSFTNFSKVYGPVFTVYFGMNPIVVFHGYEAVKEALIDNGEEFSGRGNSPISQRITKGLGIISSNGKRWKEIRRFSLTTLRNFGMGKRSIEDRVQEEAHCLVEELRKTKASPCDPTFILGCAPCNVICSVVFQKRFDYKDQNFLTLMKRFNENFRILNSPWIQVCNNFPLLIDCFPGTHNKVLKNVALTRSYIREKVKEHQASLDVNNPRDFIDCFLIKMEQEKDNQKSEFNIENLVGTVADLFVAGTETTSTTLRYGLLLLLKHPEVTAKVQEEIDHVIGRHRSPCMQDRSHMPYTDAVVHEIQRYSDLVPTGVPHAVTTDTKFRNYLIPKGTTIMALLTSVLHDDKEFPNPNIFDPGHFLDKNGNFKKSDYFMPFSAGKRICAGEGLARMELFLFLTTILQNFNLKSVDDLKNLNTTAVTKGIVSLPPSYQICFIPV
smiles,measurement,setting,value
"O=C1N[C@H](c2cncc(C#Cc3ccccc3)c2)[C@@H](c2ccccc2Cl)O1 [Compound 1, (4R,5R)-5-(2-chlorophenyl)-4-(5-(phenylethynyl)pyridin-3-yl)oxazolidin-2-one]",clearance,"[1]; Sprague Dawley, rat, plasma",5.98 mL/min/kg
same,half-life,"[1]; Sprague Dawley, rat, plasma",4.49 h
same,Cmax,"[1]; Sprague Dawley, rat, plasma, solution in 2.5% NMP + 1% Solutol HS15 in water",595 ng/mL
same,Vd,"[1]; Sprague Dawley, rat, plasma, read-out: Vdss",2.23 L/kg
same,"AUCinf (in AUClast column, footnote 1)",[1],2910^1 ng · h/mL
same,metabolism by CYP2B6,CYP2B6,No evidence
same,metabolism by CYP2C8,CYP2C8,No evidence
same,"synaptic density, SV2A PET (hippocampal/brainstem [18F]SDM-8 SUVR-1)",APP/PS1 mice,fully recovered; also recorded: highly significant increase
same,"synaptic density, SV2A PET (hippocampal/brainstem [18F]SDM-8 SUVR-1)",dKI mice [2],fully recovered; also recorded: highly significant increase
same,"SV2A and PSD-95 staining in the cerebral cortex, relative to vehicle",dKI mice [3],significant increases
same,"SV2A staining in hippocampus, relative to vehicle",dKI mice [3],significant increases
same,Tau accumulation,double knock-in mice,reduced
same,"clinically significant changes in consciousness (GCS), cognitive or psychiatric side effects (MOCA, GDS, NPIQ)",[4],no evidence
same,intensity of TEAEs,[4],mild or moderate
same,"deaths, SAEs, severe TEAEs",[4]; 36 participants,"no deaths, SAEs, or severe TEAEs"
same,number of TEAEs considered possibly related to treatment,[4]; 36 participants,8
same,tolerability,"[4]; fasted, healthy participants 50 to 80 years",well tolerated
